In patent US20250268840A1, “USE OF NANO-CARRIERS FOR DELIVERY OF ACTIVE AGENTS” (LANDA LABS (2012) LTD., priority 2022, published 2025):
One block for each compound: values may come before it.

Legend:
[1] = Thermo-rheometer viscosity of WITC (PCL), unplasticized or blended with plasticizing agents / premixes; assay type: physicochemical
Procedure: Thermo-rheometer: Thermo Scientific (Germany) Haake Mars III, with a C20/1° spindle, a gap of 0.052 mm, and a shear rate of 10 sec^−1. […]
Samples corresponding to the above-described premixes were additionally tested for their viscosity at the end of the mixing step, when the WITCs were at least homogeneously blended with the polar-carrier-insoluble materials, and in most case plasticized by the non-volatile liquids if present. Viscosity was determined as previously described at a shear rate of 10 sec^−1 over a range of temperatures between 20° C. and 80° C., and for all samples so tested the viscosity as measured at 50° C. was typically found to be of less than 10^6 mPa·s, being generally between 10^3 mPa·s and 10^5 mPa·s, often not exceeding 5×10^4 mPa·s, and many samples even having a viscosity of less 10^4 mPa·s.
In a first series of experiments, the viscosity was measured on blends of materials forming a homogeneous mass adapted for nano-sizing by the present methods. PCL and a non-volatile liquid or a fatty amine serving as SFA at various weight per weight ratios were combined in a glass vial and the sealed vials were placed in an oven pre-heated to 80° C. The PCL: non-volatile liquid ratios tested were 1:1 and 1:2.33 and the PCL: fatty amine ratios tested were 1:0.1, 1:0.33, 1:0.5 and 1:1. Following 1 hour of incubation under heat, the contents of the vials were mixed by hand for about 30 seconds, until clear solutions were obtained. The samples were allowed to cool down overnight (i.e., at least 12 hours) at room temperature so as to solidify.
Solid samples were then transferred to a rheometer where their respective viscosity was measured as a function of temperature between room temperature and 70° C. at a ramping up temperature of 10° C./min. The viscosities (or 2nd viscosities) of the samples as measured at 50° C. and 70° C. are summarized in Table 2-II(A), including in the first row the first viscosities of a reference sample made of PCL alone, unplasticized, under same conditions.

[2] = Pharmacokinetic study of tadalafil in plasma after oral administration; assay type: in vivo, rats (Sprague Dawley); conditions: rats
Procedure: The following pharmacokinetic (PK) study was conducted to determine the efficacy of a composition according to the present teachings, following its oral administration to rats.
Nine young adult healthy rats (Sprague Dawley), having an initial mean body weight of about 243.1 +1.8 g, were used in this study. They were individually tail marked and housed within a limited access caged rodent facility. The rats were randomly divided into groups of 3, and were kept with their groups in cages, in a controlled environment at a temperature of 17-23° C., with a relative humidity (RH) of 30-70%, a 12:12 hour light:dark cycle and 15 air changes/h in the study room. […]
Nano-dispersion ND39, as listed in Table 5-II, was used as the tested composition. ND39 contains tadalafil as the polar-carrier insoluble active agent present in the core of the nano-elements, and its concentration in the rats' blood was monitored. […]
The plasma samples were combined with acetone, allowing the dissolution of the nano-elements and making the tadalafil available for measuring, followed by centrifugation whereby plasma proteins were precipitated. The obtained supernatant was removed and analyzed by LC-MS/MS vs. a tadalafil calibration curve prepared in advance, in the range of 1 ng/ml to 10 ug/ml. […]

[3] = PCL:plasticizing agent w/w ratio 1:1
[4] = PCL:plasticizing agent w/w ratio 1:2.33
[5] = PCL:plasticizing agent w/w ratio 1:0.33
[6] = PCL:plasticizing agent w/w ratio 1:0.5

PCL 2nd viscosity at 50° C. [mPa · s] [1, 3]: 5.0 × 10^3 mPa · s | PCL 2nd viscosity at 70° C. [mPa · s] [1, 3]: 2.2 × 10^3 mPa · s | PCL 2nd viscosity at 50° C. [mPa · s] [1, 4]: 215 mPa · s | PCL 2nd viscosity at 70° C. [mPa · s] [1, 4]: 164 mPa · s
SMILES: CCCCOC(=O)CCCCC(=O)OCCCC [Cetiol ® B, Dibutyl adipate]

PCL 2nd viscosity at 50° C. [mPa · s] [1, 5]: 1.9 × 10^3 mPa · s | PCL 2nd viscosity at 70° C. [mPa · s] [1, 5]: 1.7 × 10^3 mPa · s | PCL 2nd viscosity at 50° C. [mPa · s] [1, 6]: 6.7 × 10^3 mPa · s | PCL 2nd viscosity at 70° C. [mPa · s] [1, 6]: 4.4 × 10^3 mPa · s
SMILES: CCCCCCCC/C=C\CCCCCCCCN [Oleyl amine]

% CV of plasma tadalafil concentration, average for all time points ([2]; 3 animals per time point): 31.1% | AUC0-∞/D (area under curve zero to infinity normalized to dose of tadalafil) ([2]; ND39 about 16 mg/kg, Ref. C about 18.7 mg/kg, Ref. T about 18.1 mg/kg): about 1,249 h.mg/ml
SMILES: CN1CC(=O)N2[C@H](c3ccc4c(c3)OCO4)c3[nH]c4ccccc4c3C[C@@H]2C1=O [Ref. T, Tadalafil]

PCL 2nd viscosity at 50° C. [mPa · s] [1, 3]: 544 mPa · s | PCL 2nd viscosity at 70° C. [mPa · s] [1, 3]: 279 mPa · s
SMILES: CCCCCCCCN(CCCCCCCC)CCCCCCCC [Trioctyl amine]
